From ChEMBL document CHEMBL1201862, “PubChem BioAssay data set” (2004)
Activity calls are given as the source filed them.

Key:
[1] = cytotoxicity in HEK-293T cells, dose response, cytotoxicity control for BCR NF-kB inhibitor project, luminescence, B-cell screen hits (AID 489021); format: functional, cell-based;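 also: HEK-293T cells carrying an NF-kB luciferase reporter; cells exposed to compound for about 14 hours before viability readout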
[2] = biological target: T1, Lytic switch protein BZLF1 (Epstein-Barr virus (strain B95-8) (HHV-4) (Human herpesvirus 4), UniProt P03206); assay: EBV ZTA inhibitors, dose response, counter-screen for EBNA-1 inhibitor project, biochemical, fluorescence polarization, Epstein-Barr virus, 1536-well (AID 2377); set-up: species or system human gammaherpesvirus 4;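 also: fluorescence polarization of Cy5-labelled ZRE DNA probe bound by purified Zta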
T1 sequence (P03206 whole entry): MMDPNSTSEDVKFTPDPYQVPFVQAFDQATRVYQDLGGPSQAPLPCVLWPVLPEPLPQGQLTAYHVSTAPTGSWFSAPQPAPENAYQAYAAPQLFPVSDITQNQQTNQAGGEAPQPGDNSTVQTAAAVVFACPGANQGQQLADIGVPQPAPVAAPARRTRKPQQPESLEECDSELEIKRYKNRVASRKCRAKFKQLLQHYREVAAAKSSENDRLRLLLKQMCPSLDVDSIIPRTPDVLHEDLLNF

[3] = biological target: T2, Epstein-Barr nuclear antigen 1 (Epstein-Barr virus (strain B95-8) (HHV-4) (Human herpesvirus 4), UniProt P03211); assay: EBNA-1 inhibitors, dose response, biochemical, fluorescence polarization, 1536-well (AID 2381); set-up: species or system human gammaherpesvirus 4;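 also: fluorescence polarization of a Cy5 DNA probe bound by EBNA-1 protein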
T2 sequence (P03211 whole entry): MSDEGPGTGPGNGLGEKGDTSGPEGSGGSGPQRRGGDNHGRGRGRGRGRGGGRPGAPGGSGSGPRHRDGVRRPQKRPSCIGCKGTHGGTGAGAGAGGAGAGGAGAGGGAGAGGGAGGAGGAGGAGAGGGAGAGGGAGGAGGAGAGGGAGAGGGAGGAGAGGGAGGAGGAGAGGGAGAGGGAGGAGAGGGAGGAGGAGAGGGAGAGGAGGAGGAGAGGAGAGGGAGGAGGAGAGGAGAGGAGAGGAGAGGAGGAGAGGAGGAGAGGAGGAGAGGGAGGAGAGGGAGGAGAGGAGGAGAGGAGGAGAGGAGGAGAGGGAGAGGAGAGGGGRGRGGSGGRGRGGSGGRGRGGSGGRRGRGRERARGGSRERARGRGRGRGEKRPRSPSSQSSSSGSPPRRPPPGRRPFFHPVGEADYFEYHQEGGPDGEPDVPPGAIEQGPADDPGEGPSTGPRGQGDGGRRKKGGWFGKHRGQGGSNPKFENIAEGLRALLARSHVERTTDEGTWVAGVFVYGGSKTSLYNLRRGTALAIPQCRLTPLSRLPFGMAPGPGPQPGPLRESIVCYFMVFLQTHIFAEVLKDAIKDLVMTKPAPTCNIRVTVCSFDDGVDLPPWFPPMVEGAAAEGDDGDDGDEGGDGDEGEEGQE

SUMO-activating enzyme [4] = biological target: T3, SUMO-activating enzyme (Homo sapiens, UniProt Q9UBT2); assay: SUMOylation inhibitor hit validation, confirmation, SUMOylation inhibitor project, biochemical, AlphaScreen (AID 2018); format: functional
T3 sequence (Q9UBE0 whole entry): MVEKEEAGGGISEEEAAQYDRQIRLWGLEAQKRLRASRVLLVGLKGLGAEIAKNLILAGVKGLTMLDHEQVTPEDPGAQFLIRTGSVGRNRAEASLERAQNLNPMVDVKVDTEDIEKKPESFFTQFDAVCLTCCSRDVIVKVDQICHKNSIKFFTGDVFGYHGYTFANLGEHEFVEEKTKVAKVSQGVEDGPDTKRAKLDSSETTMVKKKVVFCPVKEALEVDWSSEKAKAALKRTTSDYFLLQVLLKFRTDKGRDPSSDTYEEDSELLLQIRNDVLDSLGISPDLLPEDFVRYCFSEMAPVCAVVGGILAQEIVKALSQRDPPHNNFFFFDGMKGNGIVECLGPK
T3 sequence (Q9UBT2 whole entry): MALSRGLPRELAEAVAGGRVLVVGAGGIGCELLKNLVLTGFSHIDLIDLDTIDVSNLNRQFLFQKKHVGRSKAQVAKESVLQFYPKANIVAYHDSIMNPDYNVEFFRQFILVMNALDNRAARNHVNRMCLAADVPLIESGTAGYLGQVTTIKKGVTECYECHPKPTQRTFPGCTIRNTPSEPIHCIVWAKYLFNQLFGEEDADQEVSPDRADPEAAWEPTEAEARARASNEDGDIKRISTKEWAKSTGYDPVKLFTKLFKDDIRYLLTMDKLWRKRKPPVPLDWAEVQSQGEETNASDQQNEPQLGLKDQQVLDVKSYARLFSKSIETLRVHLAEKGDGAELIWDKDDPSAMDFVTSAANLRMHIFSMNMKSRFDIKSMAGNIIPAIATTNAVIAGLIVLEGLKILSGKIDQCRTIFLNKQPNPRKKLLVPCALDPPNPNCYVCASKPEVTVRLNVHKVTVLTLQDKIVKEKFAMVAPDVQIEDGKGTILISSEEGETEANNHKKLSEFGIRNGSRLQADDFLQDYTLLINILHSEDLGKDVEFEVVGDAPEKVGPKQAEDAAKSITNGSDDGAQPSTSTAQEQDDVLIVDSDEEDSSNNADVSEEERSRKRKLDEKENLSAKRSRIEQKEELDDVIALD

SUMO-activating enzyme [5] = biological target: T3, SUMO-activating enzyme; assay: inhibitors of in vitro SUMOylation cascade, primary screen, biochemical, HTRF, uHTS (AID 2006); format: protein-complex assay
[6] = biological target: G2/mitotic-specific cyclin-B1 (Homo sapiens, UniProt P14635); assay: Counterscreen assay for inhibitors of Wee1 degradation: dose response cell-based assay to identify inhibitors of cyclin B degradation. [Related pubchem assays: 1410, 1321 ]; format: functional
Chain of G2/mitotic-specific cyclin-B1 (P14635 whole entry): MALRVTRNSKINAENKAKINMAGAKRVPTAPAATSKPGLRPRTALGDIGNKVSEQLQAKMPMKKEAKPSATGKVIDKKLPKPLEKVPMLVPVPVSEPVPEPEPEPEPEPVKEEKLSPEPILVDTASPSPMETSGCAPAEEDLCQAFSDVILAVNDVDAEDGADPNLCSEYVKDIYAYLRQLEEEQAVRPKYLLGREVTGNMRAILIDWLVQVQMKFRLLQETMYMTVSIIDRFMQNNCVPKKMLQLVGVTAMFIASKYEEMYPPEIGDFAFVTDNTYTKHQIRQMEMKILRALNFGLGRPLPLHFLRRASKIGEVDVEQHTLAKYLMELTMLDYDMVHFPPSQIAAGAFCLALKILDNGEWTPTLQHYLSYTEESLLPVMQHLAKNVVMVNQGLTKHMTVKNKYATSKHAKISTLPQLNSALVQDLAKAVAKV

Wee1-like protein kinase = Wee1-like protein kinase (Homo sapiens, UniProt P30291); assay: Dose Response Cell-based Assay for Inhibitors of Wee1 Degradation. [Related pubchem assays: 1410, 1321 ]; format: functional
Chain of Wee1-like protein kinase (P30291 whole entry): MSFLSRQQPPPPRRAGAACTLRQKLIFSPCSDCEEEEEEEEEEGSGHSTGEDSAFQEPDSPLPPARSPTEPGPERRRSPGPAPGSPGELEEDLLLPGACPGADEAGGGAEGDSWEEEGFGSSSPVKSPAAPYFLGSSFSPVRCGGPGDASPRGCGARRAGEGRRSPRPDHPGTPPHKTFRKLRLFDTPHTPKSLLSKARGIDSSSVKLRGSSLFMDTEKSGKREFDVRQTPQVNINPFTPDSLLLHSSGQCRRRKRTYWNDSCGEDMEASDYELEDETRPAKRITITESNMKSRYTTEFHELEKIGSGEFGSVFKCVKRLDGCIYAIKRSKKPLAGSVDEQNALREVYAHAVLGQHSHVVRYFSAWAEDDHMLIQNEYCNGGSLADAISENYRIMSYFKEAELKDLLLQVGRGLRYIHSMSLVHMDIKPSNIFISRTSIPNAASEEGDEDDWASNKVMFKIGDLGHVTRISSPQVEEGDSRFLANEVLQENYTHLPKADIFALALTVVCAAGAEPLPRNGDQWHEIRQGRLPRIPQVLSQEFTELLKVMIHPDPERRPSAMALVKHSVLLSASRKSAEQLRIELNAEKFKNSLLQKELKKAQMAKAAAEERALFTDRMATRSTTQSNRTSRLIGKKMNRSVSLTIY

Cytochrome P450 3A4 = Cytochrome P450 3A4 (Homo sapiens, UniProt P08684); conditions: Potency;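 also: confirmatory qHTS run detecting inhibitors and substrates of CYP3A4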
Chain of Cytochrome P450 3A4 (P08684 whole entry): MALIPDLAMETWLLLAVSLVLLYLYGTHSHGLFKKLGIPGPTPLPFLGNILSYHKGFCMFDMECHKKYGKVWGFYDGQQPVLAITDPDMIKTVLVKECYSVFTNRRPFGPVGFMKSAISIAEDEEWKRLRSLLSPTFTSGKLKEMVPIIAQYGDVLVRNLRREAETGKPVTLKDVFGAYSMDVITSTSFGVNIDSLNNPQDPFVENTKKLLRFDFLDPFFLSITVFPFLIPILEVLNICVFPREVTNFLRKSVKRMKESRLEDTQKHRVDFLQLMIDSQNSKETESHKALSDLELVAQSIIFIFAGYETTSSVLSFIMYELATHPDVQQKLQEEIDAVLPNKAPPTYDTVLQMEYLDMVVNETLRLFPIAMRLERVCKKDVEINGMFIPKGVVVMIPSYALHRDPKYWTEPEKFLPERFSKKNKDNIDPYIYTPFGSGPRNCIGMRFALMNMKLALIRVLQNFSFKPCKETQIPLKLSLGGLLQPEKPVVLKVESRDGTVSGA

Cytochrome P450 2C9 = Cytochrome P450 2C9 (Homo sapiens, UniProt P11712); conditions: Potency
Chain of Cytochrome P450 2C9 (P11712 whole entry): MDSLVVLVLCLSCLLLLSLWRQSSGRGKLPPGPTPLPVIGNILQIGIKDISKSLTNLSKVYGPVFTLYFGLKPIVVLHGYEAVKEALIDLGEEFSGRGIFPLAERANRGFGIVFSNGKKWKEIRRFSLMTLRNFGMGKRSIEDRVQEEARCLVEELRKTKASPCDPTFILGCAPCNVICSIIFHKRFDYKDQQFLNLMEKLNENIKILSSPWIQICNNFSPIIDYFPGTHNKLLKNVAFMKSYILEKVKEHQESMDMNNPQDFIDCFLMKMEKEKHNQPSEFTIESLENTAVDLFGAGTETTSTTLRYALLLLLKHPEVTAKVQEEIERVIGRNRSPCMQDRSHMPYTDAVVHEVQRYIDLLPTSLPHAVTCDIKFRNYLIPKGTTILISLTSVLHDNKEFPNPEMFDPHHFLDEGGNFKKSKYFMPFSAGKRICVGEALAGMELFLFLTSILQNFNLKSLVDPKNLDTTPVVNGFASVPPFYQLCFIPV

X-box-binding protein 1 = X-box-binding protein 1 (Homo sapiens, UniProt P17861); format: functional, Cricetulus griseus;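 also: confirmatory dose-response counter-screen serving a CHOP assay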
Chain of X-box-binding protein 1 (P17861 whole entry): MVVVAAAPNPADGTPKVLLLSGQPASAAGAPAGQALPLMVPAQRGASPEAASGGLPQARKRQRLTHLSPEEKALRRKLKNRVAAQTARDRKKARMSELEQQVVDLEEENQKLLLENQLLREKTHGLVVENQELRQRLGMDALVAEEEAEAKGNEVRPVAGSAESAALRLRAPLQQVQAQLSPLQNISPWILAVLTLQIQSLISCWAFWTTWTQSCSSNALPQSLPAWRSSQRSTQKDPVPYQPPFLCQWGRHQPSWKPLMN

[7] = Luminescence Cell-Based Dose Response HTS to Identify Activators of Luciferase Translation or Activity in H4 […] Cells. [Related pubchem assays: 1829 (Project Summary), 1814 (Primary HTS)]; format: functional
[8] = Luminescence Cell-Based Dose Response HTS to Identify Activators of 5'UTR Stem-Loop Driven Prion Protein mRNA Translation in H4-C Neuroglioblastoma Cells. [Related pubchem assays: 1829 (Project Summary), 1814 (Primary HTS)]; format: functional
[9] = Luminescence Cell-Based Dose Confirmation HTS to Identify Activators of 5'UTR Stem-Loop Driven Alpha-Synuclein mRNA Translation in H4 Neuroglioblastoma Cells. [Related pubchem assays: 1829 (Project Summary), 1814 (Primary HTS)]; format: functional
H4 = assay: Luminescence Cell-Based Dose Response HTS to Identify Activators of 5'UTR Stem-Loop Driven Prion Protein mRNA Translation in H4 Neuroglioblastoma Cells. [Related pubchem assays: 1829 (Project Summary), 1814 (Primary HTS)]; format: functional; conditions: Homo sapiens
[10] = Luminescence Cell-Based Dose Response HTS to Identify Activators of Luciferase Translation or Activity in H4-C Neuroglioblastoma Cells. [Related pubchem assays: 1829 (Project Summary), 1814 (Primary HTS)]; format: functional
[11] = Luminescence Cell-Based Dose Retest to Confirm Activators of 5'UTR Stem-Loop Driven Alpha-Synuclein mRNA Translation in H4 Neuroglioblastoma Cells. [Related pubchem assays (depositor defined):AID1813, AID1829]; format: functional
[12] = Luminescence Cell-Based Dose Response to Identify Activators of 5'UTR Stem-Loop Driven Prion Protein mRNA Translation in H4-C Neuroglioblastoma Cells. [Related pubchem assays: 1829 (Project Summary), 1814 (Primary HTS)]; format: functional
[13] = Luminescence Cell-Based Dose Response to Identify Activators of Luciferase Translation or Activity in H4-C Neuroglioblastoma Cells. [Related pubchem assays: 1829 (Project Summary), 1814 (Primary HTS)]; format: functional
[14] = Luminescence Cell-Based Dose Confirmation to Identify Activators of 5'UTR Stem-Loop Driven Alpha-Synuclein mRNA Translation in H4 Neuroglioblastoma Cells. [Related pubchem assays: 1829 (Project Summary), 1814 (Primary HTS)]; format: functional
[15] = inhibitors of SNCA 5'UTR-driven reporter translation, confirmation, H4 neuroglioma cells, luminescence (AID 1988); format: functional, cell-based
[16] = luciferase reporter signal reduction – luminescence, H4-C neuroglioblastoma cells, dose response (AID 2458); format: functional, cell-based;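 also: H4 neuroglioblastoma cells stably carrying a luciferase reporter gene fusion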
[17] = Luminescence Cell-Based Dose Response HTS to Identify Inhibitors of 5'UTR Stem-Loop Driven Prion Protein mRNA Translation in H4 Neuroglioblastoma Cells. [Related pubchem assays: 1827 (Project Summary), 1813 (Primary HTS)]; format: functional
[18] = inhibitors of firefly luciferase expression or activity, dose response, H4 neuroglioma cells, luminescence (AID 1990); format: functional, cell-based
[19] = inhibitors of SNCA 5'UTR-driven translation, confirmation, luminescence, H4 neuroglioblastoma cells, dose confirmation (AID 2454); format: functional, cell-based;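 also: H4 neuroglioblastoma cells carrying an alpha-synuclein 5'UTR luciferase reporter; potency for inhibition of the luciferase signal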
[20] = microbe, parasite or virus in culture; format: functional; conditions: Mycobacterium tuberculosis
cells = format: functional, cell-based

## Cn1c(=O)n(C)c2cc(/C=C3/NC(=O)N(Cc4ccccc4)C3=O)ccc21
[1]
  IC50: > 80 µM (inactive)
[2]
  IC50: > 111 µM (not active)
[3]
  IC50: 11.2 µM (not active)

## O=[N+]([O-])c1ccccc1/C=C/C=N/n1c(S)nnc1-c1cc(-c2ccccc2)[nH]n1
SUMO-activating enzyme [4]
  IC50: 10.3 µM (active)
SUMO-activating enzyme [5]
  IC50: 26.8 µM (active)

## COc1cc(C2=NOC(C(=O)NCc3cccs3)C2)cc(OC)c1OC (stereo unspecified)
[6]
  EC50: > 49.7 µM (not active)
Wee1-like protein kinase
  EC50: > 49.7 µM (not active)

## N[C@@H](Cc1cc(O)c(O)cc1O)C(=O)O
Cytochrome P450 3A4
  AC50: 15.8 µM (inconclusive)
Cytochrome P450 2C9
  AC50: 39.8 µM (inconclusive)

## COc1ccccc1C(=O)Oc1ccc(C(C)C)cc1
X-box-binding protein 1
  Absolute IC50 (XBP1): 10 µM

## O=C(COC(=O)Cn1cnc2ccccc21)Nc1cc2c(cc1Cl)C(=O)c1ccccc1C2=O
[7]
  EC50: > 120 µM (not active)
[8]
  EC50: 2.52 µM (active)
[9]
  EC50: < 0.1 µM (active)
H4
  EC50: 40.4 µM (active)
[10]
  EC50: 0.609 µM (active)
[11]
  EC50: > 195 µM (inactive)
[12]
  EC50: > 12 µM (not active)
[13]
  EC50: > 12 µM (not active)
[14]
  EC50: 1.19 µM (active)

## Cc1ccc(C(=O)Nc2cccc(C(F)(F)F)c2)cc1Nc1[nH]cnc2ncnc1-2
[15]
  EC50: < 0.1 µM (active)
[16]
  EC50: 1.22 µM (active)
[17]
  EC50: 11.8 µM (active)
[18]
  EC50: < 0.1 µM (active)
[19]
  EC50: > 12 µM (not active)
[20]
  CC50: 34.8 µM (active)
cells
  EC50: 4.59 µM (active)
